Data set [1] has as its system platelet aggregation. The data set is described as follows: Inhibition of platelet aggregation in vitro (rat blood).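 For Inhibition of platelet aggregation in vitro (rat blood) in μM: aggregation induced by ADP added as 4 µL of a 250 µM solution.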 It is filed as cell-based. In short, it runs like this:
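Platelet-rich plasma from male Sprague-Dawley rats (250-300 g), prepared by centrifugation at 300 g for 5 minutes. Aggregation measured at 37° C in an aggregometer. Percentage inhibition derived from area under the absorbance curve over 6 minutes.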

Data set [2] has as its system platelet aggregation. The experiment in a line: Inhibition of platelet aggregation ex vivo (rat blood). The following applies: for inhibition at 10 mg/kg: read-out: Inhibition of platelet aggregation ex vivo (rat blood) in %, Gavage (oral) 10 mg/kg. It is filed as in vivo. As to the method:
Inhibition of Platelet Aggregation Ex Vivo (Rat Blood)
Male rats of the Sprague-Dawley strain, weighing 250-300 g, are used at a rate of 6 animals per batch. Each test compound is diluted in a solution of glucose-containing water (glucose 5%) containing 5% of cremophore and 3% of glycofurol.
The compounds according to the invention are administered by stomach tube (10 ml/kg at 1 mg/ml) two hours before taking the sample or by infusion (1 ml/kg at 10 mg/ml) two hours before taking the sample.
The platelet-rich plasma (PRP) is obtained by centrifugation of the blood at 300 g for 5 minutes, and the measurements of platelet aggregation are performed as described above.
The results are calculated using the area under the curve of absorbance measured for 6 minutes, and expressed as percentage (%) of inhibition.

The mark [3] stands for this setting: Rattus norvegicus, Platelet, 0.1 h, read-out: Inhibition of platelet aggregation in vitro (rat blood) in μM.
[4] abbreviates: Rattus norvegicus, Platelet, po, 2 h.
Where [5] appears, read: Platelet, 2 h, rat, gavage (oral), 10 mg/kg, two hours before taking the sample.
Setting [6] is: rat blood, in vitro, read-out: Inhibition of platelet aggregation in vitro (rat blood).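 For Inhibition of platelet aggregation in vitro (rat blood) in μM: aggregation induced by ADP added as 4 µL of a 250 µM solution.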
[7] abbreviates: rat, gavage (oral), 10 mg/kg, two hours before taking the sample.
Setting [8] is: rat, 10 mg/kg, two hours before taking the sample.
Where [9] appears, read: 0.1 h, rat platelet-rich plasma, ADP-induced aggregation, area under the curve of absorbance for 6 minutes, read-out: Inhibition of platelet aggregation in vitro (rat blood).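 For Inhibition of platelet aggregation in vitro (rat blood) in μM: aggregation induced by ADP added as 4 µL of a 250 µM solution.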

The structures appear in SMILES notation. Where a name gives a salt, the structure may show the parent alone. Read-outs that look alike come from different tables or passages of the source.

The melting point is the temperature, or range, at which the solid turns liquid.

`CCCC(=O)c1cnn(-c2ccc(NC(=O)c3cn(CC(=O)N4CC(C)N(CCOC)C(C)C4)c4ccc(Cl)cc34)cc2)c1C.Cl` (stereo not drawn) came in with a melting point of 187 °C.

Turning to `CCCC(=O)c1cnn(-c2ccc(NC(=O)c3cn(CC(=O)N4CCN(C)CC4)c4ccc(Cl)cc34)nn2)c1C` [Compound 28, N-[6-(4-Butyryl-5-methyl-1H-pyrazol-1-yl)pyridazin-3-yl]-5-chloro-1-[2-(4-methylpiperazin-1-yl)-2-oxoethyl]-1H-indole-3-carboxamide hydrochloride], in the data set with platelet aggregation [1] (setting [3]), the IC50 was found to be 0.06 µM. Besides, in the data set with platelet aggregation [2] (Rattus norvegicus, Platelet, iv, 2 h, read-out: Inhibition of platelet aggregation ex vivo (rat blood) in %, Infusion (Intravenous) 3 mg/kg), the inhibition at 3 mg/kg worked out at 79%. The inhibition at 10 mg/kg in the data set with platelet aggregation [2] (setting [4]) is 73.5%.

Turning to `CCCC(=O)c1cnn(-c2ccc(NC(=O)c3cn(CC(=O)N4CCN(CCOC)CC4)c4ccc(Cl)cc34)nn2)c1C` [Compound 29, N-[6-(4-Butyryl-5-methyl-1H-pyrazol-1-yl)pyridazin-3-yl]-5-chloro-1-{2-[4-(2-methoxyethyl)piperazin-1-yl]-2-oxoethyl}-1H-indole-3-carboxamide hydrochloride], the IC50 in the data set with platelet aggregation [1] (setting [3]) amounted to 0.08 µM. Further, the inhibition at 1 mg/kg in the data set on platelet aggregation [2] (Rattus norvegicus, Platelet, iv, 2 h, read-out: Inhibition of platelet aggregation ex vivo (rat blood) in %, Infusion (Intravenous) 1 mg/kg) stood at 76%. Besides, the inhibition at 10 mg/kg with platelet aggregation [2] (setting [4]) amounted to 86.3%.

Take `CCCC(=O)c1cnn(-c2ccc(NC(=O)c3cn(CC(=O)N4CCN(CCOC)CC4)c4ccc(Cl)cc34)cc2)c1C` [Compound 105, N-[4-(4-Butyryl-5-methyl-1H-pyrazol-1-yl)phenyl]-5-chloro-1-{2-[4-(2-methoxyethyl)piperazin-1-yl]-2-oxoethyl}-1H-indole-3-carboxamide hydrochloride]: the IC50 with platelet aggregation [1] (Platelet, rat blood, in vitro, read-out: Inhibition of platelet aggregation in vitro (rat blood)) was 0.32 µM. Also, in the data set with platelet aggregation [2] (setting [5]), the inhibition at 10 mg/kg is 67.9%.

Consider `CCCC(=O)c1cnn(-c2ccc(NC(=O)c3cn(CC(=O)N4CCN(C)CC4)c4cc(C)c(C)cc34)cc2)c1C.Cl` [Compound 107], for which, in the data set on platelet aggregation [1] (setting [6]), the IC50 worked out at 0.3 µM. Also, the “Inhibition of platelet aggregation ex vivo (rat blood) in %, Gavage (oral) 10 mg/kg” value (“Inhibition … in %, Gavage (oral) 10 mg/kg” for short) in the data set with platelet aggregation [2] (setting [7]) stood at 36.8%. In addition, the “Inhibition of platelet aggregation ex vivo (rat blood) in %, Infusion (Intravenous) 10 mg/kg” value in the data set on platelet aggregation [2] (setting [8]) is 57.8%.

In the case of `CCCC(=O)c1cnn(-c2ccc(NC(=O)c3cn(CC(=O)N4CCN(C)CC4)c4ccc(Cl)cc34)cc2)c1C.Cl` [Compound 115], the IC50 with platelet aggregation [1] (setting [6]) is 0.32 µM. Moreover, the “Inhibition … in %, Gavage (oral) 10 mg/kg” value in the data set on platelet aggregation [2] (setting [7]) came to 50.6%. Besides, the “Inhibition of platelet aggregation ex vivo (rat blood) in %, Infusion (Intravenous) 10 mg/kg” value in the data set with platelet aggregation [2] (setting [8]) is 78.2%.

Consider `CCCC(=O)c1cnn(-c2ccc(NC(=O)c3cn(CC(=O)N4CCN(CCOC)CC4)c4ccc(C)cc34)cc2)c1C.Cl` [Compound 119], for which the IC50 with platelet aggregation [1] (setting [6]) came to 0.18 µM. The “Inhibition … in %, Gavage (oral) 10 mg/kg” value in the data set with platelet aggregation [2] (setting [7]) is 61.1%.

`CCCC(=O)c1cnn(-c2ccc(NC(=O)c3cn(CC(=O)N4CCN(CCF)CC4)c4ccc(C)cc34)cc2)c1C.Cl` [Compound 133]: the IC50 in the data set on platelet aggregation [1] (setting [6]) stood at 0.32 µM. For the same compound, the “Inhibition … in %, Gavage (oral) 10 mg/kg” value with platelet aggregation [2] (setting [7]) is 74.2%.

Turning to `CCCC(=O)c1cnn(-c2ccc(NC(=O)c3cn(CC(=O)N4CCN(CCF)CC4)c4ccc(Cl)cc34)cc2)c1C.Cl` [Compound 142], in the data set with platelet aggregation [1] (setting [6]), the IC50 was 0.13 µM. Moreover, the “Inhibition … in %, Gavage (oral) 10 mg/kg” value with platelet aggregation [2] (setting [7]) is given as 76.5%.

In the case of `CCCC(=O)c1cnn(-c2ccc(NC(=O)c3cn(CC(=O)N4CCN(CCOCCOC)CC4)c4ccc(Cl)cc34)cc2)c1C.Cl` [Compound 145], the IC50 in the data set with platelet aggregation [1] (setting [6]) was determined as 0.25 µM. Moreover, the “Inhibition … in %, Gavage (oral) 10 mg/kg” value in the data set with platelet aggregation [2] (setting [7]) worked out at 53.7%.

In the case of `CCCC(=O)c1cnn(-c2ccc(NC(=O)c3cn(CC(=O)N4CCN(Cc5ccc(F)cc5)CC4)c4ccc(C)cc34)cc2)c1C.Cl` [Compound 147], in the data set on platelet aggregation [1] (setting [6]), the IC50 worked out at 0.19 µM. Moreover, the “Inhibition … in %, Gavage (oral) 10 mg/kg” value with platelet aggregation [2] (setting [7]) amounted to 74.9%.

For `CCCC(=O)c1cnn(-c2ccc(NC(=O)c3cn(CC(=O)N4CCCC4C(F)(F)F)c4ccc(Cl)cc34)cc2)c1C` (stereo not drawn) [Compound 170], in the data set on platelet aggregation [1] (setting [6]), the IC50 came out at 0.12 µM. The “Inhibition … in %, Gavage (oral) 10 mg/kg” value in the data set with platelet aggregation [2] (setting [7]) is given as 71.5%.

Consider `CCCC(=O)c1cnn(-c2ccc(NC(=O)c3cn(CC(=O)N4CCN(C)CC4C)c4ccc(Cl)cc34)cc2)c1C.Cl` (stereo not drawn) [Compound 177], for which the IC50 in the data set on platelet aggregation [1] (setting [6]) was determined as 0.37 µM. In addition, the “Inhibition … in %, Gavage (oral) 10 mg/kg” value in the data set on platelet aggregation [2] (setting [7]) turned out to be 63.9%.

On to `CCCC(=O)c1cnn(-c2ccc(NC(=O)c3cn(CC(=O)N4CCN(C(C)COC)CC4)c4ccc(Cl)cc34)cc2)c1C.Cl` (stereo not drawn) [Compound 179], for which, in the data set with platelet aggregation [1] (setting [6]), the IC50 was 0.17 µM. The “Inhibition … in %, Gavage (oral) 10 mg/kg” value with platelet aggregation [2] (setting [7]) is listed as 76.1%.

With `CCCC(=O)c1cnn(-c2ccc(NC(=O)c3cn(CC(=O)N4CCN(C(C)(C)COC)CC4)c4ccc(Cl)cc34)cc2)c1C.Cl` [Compound 180], in the data set with platelet aggregation [1] (setting [6]), the IC50 was found to be 0.24 µM. The “Inhibition … in %, Gavage (oral) 10 mg/kg” value with platelet aggregation [2] (setting [7]) is reported as 65.1%.

With `CCCC(=O)c1cnn(-c2ccc(NC(=O)c3cn(CC(=O)N4CCN(C)CC4)c4ccc(Cl)cc34)c(C#N)c2)c1C` [Compound 219], the IC50 with platelet aggregation [1] (setting [6]) is 0.54 µM. Also, the “Inhibition … in %, Gavage (oral) 10 mg/kg” value in the data set with platelet aggregation [2] (setting [7]) amounted to 65.1%.

For `CCCC(=O)c1cnn(-c2ccc(NC(=O)c3cn(CC(=O)N4CC(C)N(C)C(C)C4)c4ccc(Cl)cc34)cc2)c1C.Cl` (stereo not drawn) [Compound 262, N-[4-(4-Butyryl-5-methyl-1H-pyrazol-1-yl)phenyl]-5-chloro-1-[2-oxo-2-(3,4,5-trimethylpiperazin-1-yl)ethyl]-1H-indole-3-carboxamide hydrochloride], the melting point was 217 °C. Further, the inhibition at 10 mg/kg with platelet aggregation [2] (setting [5]) was determined as 58.8%.

As to `CCCC(=O)c1cnn(-c2ccc(NC(=O)c3cn(CC(=O)N4CCN(C)C(C(=O)NC)C4)c4ccc(Cl)cc34)cc2)c1C` (stereo not drawn) [Compound 272, N-[4-(4-butyryl-5-methyl-1H-pyrazol-1-yl)phenyl]-5-chloro-1-{2-[4-methyl-3-(methylcarbamoyl)piperazin-1-yl]-2-oxoethyl}-1H-indole-3-carboxamide], the melting point turned out to be 274 °C. Further, in the data set on platelet aggregation [1] (setting [9]), the IC50 stood at 0.21 µM.

With `CCCC(=O)c1cnn(-c2ccc(NC(=O)c3cn(CC(=O)N4CCN5CCNC(=O)C5C4)c4ccc(Cl)cc34)cc2)c1C.Cl` (stereo not drawn) [Compound 273, N-[4-(4-Butyryl-5-methyl-1H-pyrazol-1-yl)phenyl]-5-chloro-1-[2-oxo-2-(9-oxooctahydro-2H-pyrazino[1,2-a]pyrazin-2-yl)ethyl]-1H-indole-3-carboxamide hydrochloride], the melting point was determined as 230 °C. Besides, the IC50 with platelet aggregation [1] (setting [9]) came to 0.29 µM.

Consider `CCCC(=O)c1cnn(-c2ccc(NC(=O)c3cn(CC(=O)N4CCN5CCN(C)C(=O)C5C4)c4ccc(Cl)cc34)cc2)c1C` (stereo not drawn) [Compound 274, N-[4-(4-Butyryl-5-methyl-1H-pyrazol-1-yl)phenyl]-5-chloro-1-[2-(8-methyl-9-oxooctahydro-2H-pyrazino[1,2-a]pyrazin-2-yl)-2-oxoethyl]-1H-indole-3-carboxamide hydrochloride], for which, in the data set with platelet aggregation [1] (setting [9]), the IC50 amounted to 0.1 µM. Moreover, the inhibition at 10 mg/kg in the data set on platelet aggregation [2] (setting [5]) was 82.7%.

`CCCC(=O)c1cnn(-c2ccc(NC(=O)c3cn(CC(=O)N4CCN(CCOC(C)=O)CC4)c4ccc(Cl)cc34)cc2)c1C.Cl` [Compound 275, 2-{4-[(3-{[4-(4-Butyryl-5-methyl-1H-pyrazol-1-yl)phenyl]carbamoyl}-5-chloro-1H-indol-1-yl)acetyl]piperazin-1-yl}ethyl acetate hydrochloride] gave a melting point of 160 °C. Besides, the IC50 with platelet aggregation [1] (setting [9]) came to 0.2 µM.

In the case of `CCCC(=O)c1cnn(-c2ccc(NC(=O)c3cn(CC(=O)N4CCN(CC(C)=O)CC4)c4ccc(Cl)cc34)cc2)c1C.Cl` [Compound 276, N-[4-(4-Butyryl-5-methyl-1H-pyrazol-1-yl)phenyl]-5-chloro-1-{2-oxo-2-[4-(2-oxopropyl)piperazin-1-yl]ethyl}-1H-indole-3-carboxamide hydrochloride], the melting point amounted to 248 °C. Moreover, in the data set on platelet aggregation [1] (setting [9]), the IC50 amounted to 0.22 µM. The inhibition at 10 mg/kg in the data set on platelet aggregation [2] (setting [5]) amounted to 49.9%.
